Measured values published in PubChem BioAssay AID256 (DTP/NCI, 2004).
Values joined by “and” are separate entries in the source; they are usually repeats but may differ in a detail not shown here. Identical values can stand only once. Inconclusive results and toxic doses are left out. How the source made its calls: active means survival T/C of 150% or more; inactive means T/C below 125% in these data.

Tested on: CD2F1 mice, L1210 leukemia ip, survival T/C
Test: NCI In Vivo Anticancer Drug Screen. Data for tumor model L1210 Leukemia (intraperitoneal) in CD2F1 (CDF1) mice
Conditions: higher = longer survival
Description: The antitumor activity of compounds was measured in mice bearing transplantable tumors. Survival or tumor size were measured and the results are expressed as the measurement made in the treated group (T) divided by the measurement made in the vehicle treated control group (C). The tumor model used in this assay is L1210 Leukemia (intraperitoneal) in CD2F1 (CDF1) mice

[1] = endpoint: mean survival time, dose: 50.0 mg/kg/injection, schedule: Q01DX009 (ip), vehicle: saline with Tween-80
[2] = endpoint: mean survival time, dose: 200.0 mg/kg/injection, schedule: Q01DX009 (ip), vehicle: saline with Tween-80
[3] = endpoint: mean survival time, dose: 100.0 mg/kg/injection, schedule: Q04DX002 (ip), vehicle: saline with Tween-80
[4] = endpoint: mean survival time, dose: 200.0 mg/kg/injection, schedule: Q04DX002 (ip), vehicle: saline with Tween-80
[5] = endpoint: mean survival time, dose: 400.0 mg/kg/injection, schedule: Q04DX002 (ip), vehicle: saline with Tween-80
[6] = endpoint: mean survival time, dose: 100.0 mg/kg/injection, schedule: Q04DX003 (ip), vehicle: saline with Tween-80
[7] = endpoint: mean survival time, dose: 200.0 mg/kg/injection, schedule: Q04DX003 (ip), vehicle: saline with Tween-80
[8] = endpoint: mean survival time, dose: 400.0 mg/kg/injection, schedule: Q04DX003 (ip), vehicle: saline with Tween-80
[9] = endpoint: mean survival time, dose: 100.0 mg/kg/injection, schedule: Q01DX001 (ip), vehicle: saline
[10] = endpoint: mean survival time, dose: 12.5 mg/kg/injection, schedule: Q01DX009 (ip), vehicle: saline
[11] = endpoint: mean survival time, dose: 100.0 mg/kg/injection, schedule: Q01DX009 (ip), vehicle: saline with Tween-80
[12] = endpoint: mean survival time, dose: 100.0 mg/kg/injection, schedule: Q04DX003 (ip), vehicle: saline
[13] = endpoint: mean survival time, dose: 200.0 mg/kg/injection, schedule: Q04DX003 (ip), vehicle: saline
[14] = endpoint: mean survival time, dose: 400.0 mg/kg/injection, schedule: Q04DX003 (ip), vehicle: saline

Measured: T/C

CC(=O)C(C(C)=O)C1C=CC=CC=C1
inactive: [1] 100 % of control | [2] 94 % of control

NC(CN1CCCCC1)C(=O)O (centres undefined)
inactive: [3] 98 % of control | [4] 90 % of control | [5] 94 % of control

CNC(=S)N(C1CCCCC1)C1CCCCC1
inactive: [6] 111 % of control | [7] 96 % of control | [8] 94 % of control

Nc1cc(=O)c2ncn(C3OC(CO)C(O)C3O)c2[nH]1 (centres undefined)
inactive: endpoint: mean survival time, dose: 25.0 mg/kg/injection, schedule: Q01DX005 (ip), vehicle: other 98 % of control | endpoint: mean survival time, dose: 50.0 mg/kg/injection, schedule: Q01DX005 (ip), vehicle: other 93 % of control | endpoint: mean survival time, dose: 100.0 mg/kg/injection, schedule: Q01DX005 (ip), vehicle: other 87 % of control | endpoint: mean survival time, dose: 200.0 mg/kg/injection, schedule: Q01DX005 (ip), vehicle: other 106 % of control | endpoint: mean survival time, dose: 400.0 mg/kg/injection, schedule: Q01DX005 (ip), vehicle: other 103 % of control

CN1CCc2cc3c(cc2C1)OCO3
inactive: endpoint: mean survival time, dose: 75.0 mg/kg/injection, schedule: Q01DX001 (ip), vehicle: other 98 % of control | [9] 97 % of control | endpoint: mean survival time, dose: 150.0 mg/kg/injection, schedule: Q01DX001 (ip), vehicle: other 92 % of control

CC(=O)O.CC(=O)O.CC(=O)O.CC(=O)O.[Rh].[Rh]
inactive: endpoint: mean survival time, dose: 6.25 mg/kg/injection, schedule: Q01DX009 (ip), vehicle: saline 110 % of control | [10] 116 % of control | endpoint: mean survival time, dose: 25.0 mg/kg/injection, schedule: Q01DX009 (ip), vehicle: saline 100 % of control

O=C(O)CSCC(=O)c1ccccc1
inactive: [11] 98 % of control | [6] 94 % of control | [2] 100 % of control | [7] 98 % of control | endpoint: mean survival time, dose: 400.0 mg/kg/injection, schedule: Q01DX009 (ip), vehicle: saline with Tween-80 98 % of control | [8] 102 % of control

CC1(C)OC(=O)C(c2ccccc2)O1 (centres undefined)
inactive: [6] 100 % of control | [7] 98 % of control | [8] 104 % of control

CC1OC(c2ccccc2)OC1C (centres undefined)
inactive: [6] 94 % of control | [7] 92 % of control | [8] 90 % of control

CCOC(=O)c1ncn(C2OC(COC(=O)c3ccccc3)C(OC(=O)c3ccccc3)C2OC(=O)c2ccccc2)c1C (centres undefined)
inactive: endpoint: median survival time, dose: 48.9 mg/kg/injection, schedule: Q01DX005 (ip), vehicle: saline with Tween-80 98 % of control | endpoint: median survival time, dose: 97.8 mg/kg/injection, schedule: Q01DX005 (ip), vehicle: saline with Tween-80 100 % of control | endpoint: median survival time, dose: 195.6 mg/kg/injection, schedule: Q01DX005 (ip), vehicle: saline with Tween-80 90 % of control

O=C(O)C1Cc2c([nH]c3ccccc23)C2CCC(=O)N12 (centres undefined)
inactive: [3] 100 % of control | [4] 108 % of control | [5] 100 % of control

CCCCCCCCCCCCSCCC(=O)O
inactive: [12] 98 % of control | [13] 98 % of control | [14] 97 % of control

COc1cc(OC)c(NC(=O)Oc2cc(C)c(Cl)c(C)c2Cl)cc1Cl
inactive: [1] 94 % of control | [11] 94 % of control | [2] 97 % of control

CC(C)(C)OC(=O)CCC(NC(=O)OC(C)(C)C)C(=O)O (centres undefined)
inactive: [6] 98 % of control | [7] 93 % of control | [8] 95 % of control

O=C(/C=C/c1ccc(Cl)c(Cl)c1)c1ccccc1
inactive: endpoint: mean survival time, dose: 50.0 mg/kg/injection, schedule: Q01DX009 (ip), vehicle: Klucel (hydroxypropylcellulose) (HPC) 105 % of control | endpoint: mean survival time, dose: 100.0 mg/kg/injection, schedule: Q01DX009 (ip), vehicle: Klucel (hydroxypropylcellulose) (HPC) 98 % of control

Oc1ccccc1-c1ccccc1
inactive: [1] 98 % of control | [11] 98 % of control | [2] 98 % of control

Clc1c(Cl)c(Cl)c(C(c2c(Cl)c(Cl)c(Cl)c(Cl)c2Cl)c2c(Cl)c(Cl)c(Cl)c(Cl)c2Cl)c(Cl)c1Cl
inactive: [6] 98 % of control | [7] 98 % of control | [8] 110 % of control

O=C(/C=C(/Nc1ccccc1)c1ccccc1)c1ccccc1
inactive: endpoint: mean survival time, dose: 100.0 mg/kg/injection, schedule: Q01DX001 (ip), vehicle: saline with Tween-80 90 % of control | endpoint: mean survival time, dose: 200.0 mg/kg/injection, schedule: Q01DX001 (ip), vehicle: saline with Tween-80 92 % of control | endpoint: mean survival time, dose: 400.0 mg/kg/injection, schedule: Q01DX001 (ip), vehicle: saline with Tween-80 86 % of control

O=C1c2ccccc2C(=O)N1CN1C(=O)c2ccccc2C1=O
inactive: [1] 93 % of control | [11] 92 % of control | [2] 93 % of control

CCCCCCCC1C(=O)OC2CC3C(C)=CC(=O)C(O)C3(C)C3C4(O)OCC23C1C(C)C4O (centres undefined)
inactive: endpoint: median survival time, dose: 2.5 mg/kg/injection, schedule: Q01DX005 (ip), vehicle: Klucel (hydroxypropylcellulose) (HPC) 109 % of control | endpoint: median survival time, dose: 5.0 mg/kg/injection, schedule: Q01DX005 (ip), vehicle: Klucel (hydroxypropylcellulose) (HPC) 106 % of control | endpoint: median survival time, dose: 10.0 mg/kg/injection, schedule: Q01DX005 (ip), vehicle: Klucel (hydroxypropylcellulose) (HPC) 102 % of control | endpoint: median survival time, dose: 20.0 mg/kg/injection, schedule: Q01DX005 (ip), vehicle: Klucel (hydroxypropylcellulose) (HPC) 108 % of control

CC(C)(C)/C=N/Nc1ccc([N+](=O)[O-])cc1[N+](=O)[O-]
inactive: endpoint: mean survival time, dose: 100.0 mg/kg/injection, schedule: Q04DX003 (ip), vehicle: acetone 97 % of control | endpoint: mean survival time, dose: 200.0 mg/kg/injection, schedule: Q04DX003 (ip), vehicle: acetone 101 % of control | endpoint: mean survival time, dose: 400.0 mg/kg/injection, schedule: Q04DX003 (ip), vehicle: acetone 97 % of control

CC1CC1C(N)=O (centres undefined)
inactive: endpoint: mean survival time, dose: 50.0 mg/kg/injection, schedule: Q04DX002 (ip), vehicle: saline 103 % of control | endpoint: mean survival time, dose: 100.0 mg/kg/injection, schedule: Q04DX002 (ip), vehicle: saline 98 % of control and 102 % of control | endpoint: mean survival time, dose: 200.0 mg/kg/injection, schedule: Q04DX002 (ip), vehicle: saline 98 % of control and 103 % of control | endpoint: mean survival time, dose: 400.0 mg/kg/injection, schedule: Q04DX002 (ip), vehicle: saline 101 % of control and 104 % of control | endpoint: mean survival time, dose: 600.0 mg/kg/injection, schedule: Q04DX002 (ip), vehicle: saline 98 % of control | endpoint: mean survival time, dose: 800.0 mg/kg/injection, schedule: Q04DX002 (ip), vehicle: saline 100 % of control

COC(=O)N1CC=CCN1C(=O)OC
inactive: endpoint: mean survival time, dose: 100.0 mg/kg/injection, schedule: Q01DX009 (ip), vehicle: saline 105 % of control | endpoint: mean survival time, dose: 200.0 mg/kg/injection, schedule: Q01DX009 (ip), vehicle: saline 108 % of control | endpoint: mean survival time, dose: 400.0 mg/kg/injection, schedule: Q01DX009 (ip), vehicle: saline 102 % of control

CCOC(=O)c1ccc(N2C(=O)C=CC2=O)cc1
inactive: [10] 97 % of control

Nc1ccc(Cl)cc1C(=O)c1ccc[nH]1
inactive: [9] 101 % of control | [12] 94 % of control | endpoint: mean survival time, dose: 200.0 mg/kg/injection, schedule: Q01DX001 (ip), vehicle: saline 98 % of control | [13] 94 % of control | endpoint: mean survival time, dose: 400.0 mg/kg/injection, schedule: Q01DX001 (ip), vehicle: saline 93 % of control | [14] 94 % of control

CC1(C)N=C(N)N=C(N)N1c1cccc(CCCCOc2ccccc2)c1
inactive: endpoint: mean survival time, dose: 6.25 mg/kg/injection, schedule: Q01DX009 (ip), vehicle: saline with Tween-80 101 % of control | endpoint: mean survival time, dose: 12.5 mg/kg/injection, schedule: Q01DX009 (ip), vehicle: saline with Tween-80 111 % of control | endpoint: mean survival time, dose: 25.0 mg/kg/injection, schedule: Q01DX009 (ip), vehicle: saline with Tween-80 108 % of control

O=C1OC(=O)c2c1ccc1ccc(Cl)cc21
inactive: [11] 102 % of control | [2] 96 % of control

CCCCNCCO
inactive: [9] 104 % of control
